Converted amounts (≈) assume the structure as drawn. Each block holds one molecule with its values, some of them ahead of it.
Assays:
Rat Femur = experiment: Immobilization Dependent Bone Loss in the Rat Femur (ovariectomized rats, unilateral sciatic neurotomy); type: in vivo; settings: 20 mg/kg, i.p., 5×/week for 4 weeks
Protocol: This assay was performed according to the procedure described by Kharode Y.P., Kowal D., O'Rourke S., and Hayward M., "Effect of Time and Pharmacologic Intervention on Bone Mineralization," J. Bone Min. Res. 2, Supp.1. (1987).
Bone mass was determined in the contralateral femora from ovariectomized rats which had been subjected to unilateral sciatic nerve severance. After sciatic neurotomy, the rats were treated with test compound for 2 to 4 weeks. The rats were euthanized, the femora were excised, debrided of soft tissue, and then dehydrated. After drying, the mass of each pair of femora was determined by weighing. The % change in bone mass is calculated using the formula: [formula]

Rat Limb Bone = experiment: 45Ca Release from Rat Limb Bone (inhibition of bone resorption); type: cell-based, rat (Sprague-Dawley CD); settings: for minimal effective concentration: concentration required to inhibit bone resorption, from regression analysis, read-out: MIC, Inhibition of Bone Resorption (45Ca release)
Protocol: Timed pregnant Sprague-Dawley CD rats (Charles River) are administered 100 uCi^45 CaCl2 (NEN calcium-45 NEZ-013) in 100 μl of 0.9% saline, subcutaneously, on day 18 of gestation. The rats are sacrificed the following day by asphyxiation. […] The modified BGJb media is obtained without salts glucose or bicarbonate and is supplemented before use with 0.1 mM MgCl2, 1.25 mM CaCl2, 5.3 mM KCl, 0.7 mM MgSO4, 130 mM NaCl, 1.0 mM NaH2 PO4, 1 g/1 glucose, 50 mg/1 Na acetate and 100 U/ml penicillin G. The medium is sterilized by passage through a […] filter (Nalge). Under a dissecting microscope, the bones are gently cleaned of adherent tissue and the cartilagenous ends removed. Step (2): Incubation and Drug Treatment The midshafts are placed, individually, on 3×3 mm squares of filter paper (Gelman […] filters; […] pore size) which rest on stainless steel screens in wells of 24-well culture plates containing 0.5 ml of preincubation medium. The preincubation medium is brought to 37 deg. C. prior to transfer of bones. The preincubation medium consists of the modified BGJb medium (with salts and glucose as above), pH 7.3, containing 29 mM NaHCO3. After incubation for 18-24 hours at 37° C. in 5% CO2, the bones are transferred on their screen/filter paper supports to new plates containing, in a total volume of 0.5 ml/well at 37° C., the test compound diluted in preincubation medium supplemented with 15% heat inactivated horse serum (Gibco No. 230-6050), pH 7.3, with or without a bone resorption stimulating agent (parathyroid hormone [PTH]). For compounds that require nonaqueous solvents, dilutions are made from the appropriate stock solution with medium. In these instances, basal and bone resorption stimulated controls exposed to an equivalent concentration of the vehicle are included. An additional group of bones that have been subjected to boiling for 1 hour are used to establish background, non cell mediated, exchange of ^45 Ca. The right ulna and radius from each fetus are used. Both bones are subjected to the same treatment and each treatment group consists of bones from 4 or more fetuses. Treatments are randomly assigned using a preclinical statistics program (PS-ALLOC). After a 48 hour incubation at 37° C. in 5% CO2, the bones are removed from the medium and extracted in 0.5 ml of 0.1N HCl for 1 or more days. Duplicate 150 μl aliquots of the incubation medium and the bone extract are analyzed for ^45 Ca radioactivity in 5 ml of liquid scintillation cocktail. The percentage of bone ^45 Ca released into the medium is determined as follows: [formula] Results are normally expressed as the ratio of the percent ^45 Ca release of the experimental group verses the appropriate vehicle control. […] A regression analysis is calculated for dose response and the concentration of test compound required to inhibit bone resorption (^45 Ca release) is reported (Table II).

[1] = cited from earlier work
[2] = Rattus norvegicus, 48 hour incubation at 37° C.

Molecule: O=C1C=C(Oc2ccc(-c3ccccc3)cc2)C(O)O1 (stereo not drawn) [Example 1, 4-([1,1'-Biphenyl]-4-yloxy)-5-hydroxy-2(5H)-furanone]
% Change in Bone Mass (Rat Femur): 4.8 ± 0.6% | minimal effective concentration (Rat Limb Bone; [2]): 10 µg/mL

Molecule: CCCCCCCCc1ccc(OC2=CC(=O)OC2O)cc1 (stereo not drawn) [Example 3, 4-(4-Octylphenoxy)-5-hydroxy-2(5H)-furanone]
minimal effective concentration (Rat Limb Bone; [2]): 10 µg/mL

Molecule: O=C1C=C(Oc2ccc(C3CCCC3)cc2)C(O)O1 (stereo not drawn) [Example 4, 4-(4-Cyclopentylphenoxy)-5-hydroxy-2(5H)-furanone]
minimal effective concentration (Rat Limb Bone; [2]): 1 µg/mL

IC50 (Rat Limb Bone; Rattus norvegicus, 48 hour incubation at 37° C., printed in the MIC (μg/mL) column): 3.5 µg/mL (≈ 13.5 µM)
Molecule: O=C1C=C(Oc2ccc(C(F)(F)F)cc2)C(O)O1 (stereo not drawn) [Example 5, 4-(4-Trifluoromethylphenoxy)-5-hydroxy-2(5H)-furanone]

Molecule: O=C1C=C(Oc2ccc(Sc3ccccc3)cc2)C(O)O1 (stereo not drawn) [Example 7, 4-[4-thiophenyl-1-phenoxy]-5-hydroxy-2(5H)-furanone]
minimal effective concentration (Rat Limb Bone; [2]): 10 µg/mL

Molecule: [F-].[Na+] [sodium fluoride]
bone growth quality ([1]; in vivo): irregular | fracture incidence ([1]; in vivo): does not appear to be significantly lowered | mitogenic activity for osteoblasts ([1]; in vivo): mitogenic for osteoblasts | bone density increase ([1]; may result in increase up to 8-10% a year): 8-10 % a year

Molecule: Estrogen
side effects ([1]; in vivo): increased risk of certain types of cancers

B1: PTH: bone resorption stimulating agent (parathyroid hormone [PTH]) (protein, UniProt P01270 32-115, looked up)
Parathyroid hormone: SVSEIQLMHNLGKHLNSMERVEWLRKKLQDVHNFVALGAPLAPRDAGSQRPRKKEDNVLVESHEKSLGEADKADVNVLTKAKSQ
ratio of the percent 45Ca release vs vehicle control (basal = 1.00) (Rat Limb Bone; PTH 10^-7 M, bone resorption agent, 'commonly'): 1.3-2.0

— patent US5336687A, “Inhibition of bone loss by 4-aryloxy-5-hydroxy-2(5H)-furanones” (American Home Products Corporation, priority 1993, dated 1994)
